Article PMC4584933, “Establishing the pig as a large animal model for vaccine development against human cancer” (Frontiers in Genetics, 2015)

Key:
SLA-2*04:01 = test: Peptide-MHC class I complex stability, scintillation proximity assay (SPA); parameters: species or system pig; settings: biotinylated recombinant SLA heavy chain, 125I-β2m, excess unlabeled β2m, read every 40 min, number only if t1/2 ≥ 0.5 h, '-' = not stably binding
Protocol: (§1) The stability of the selected 198 peptides in complex with relevant SLA class I molecules and β2m was determined using a scintillation proximity assay (SPA), as previously described (Harndahl et al., [2011]). Briefly, biotinylated recombinant MHC class I heavy chains were attached to a streptavidin-coated scintillation microplate together with iodinated (^125I) β2m and candidate peptide resulting in a scintillation signal, which was consecutively measured every 40 min by a scintillation plate counter. The duration of this signal is directly correlated to the stability of the peptide-MHC class I-β2m complex under dissociating conditions and in the presence of excess unlabeled β2m (Harndahl et al., [2011]). Peptides with a half-life ≥ 0.5 h were selected as stable binders.

SLA-3*04:01 = test: as above; parameters: species or system pig; settings: biotinylated recombinant SLA heavy chain, 125I-β2m, excess unlabeled β2m, read every 40 min, number only if t1/2 ≥ 0.5 h, '-' = not stably binding
Protocol: as §1

SLA-2*05:02 = test: as above; parameters: species or system pig; settings: biotinylated recombinant SLA heavy chain, 125I-β2m, excess unlabeled β2m, read every 40 min, number only if t1/2 ≥ 0.5 h, '-' = not stably binding
Protocol: as §1

PBMCs = test: In vitro peptide stimulation of porcine PBMCs, IFN-γ release assay (ELISA); type: cell-based, pig; parameters: key to T cell response: “x” indicates that a response was found to this given peptide at least once; settings: PBMCs of immunized pigs, 2 × 10^5/well, 5 μg/ml peptide, 67.5–70.0 h, IFN-γ ELISA; response = 2-fold increase vs day -2 and at least 25 pg/ml IFN-γ, found at least once; SLA restriction not included

## RNYHLQIVTKY [IDO112, porcine IDO-derived 9-11mer peptide]
SLA-2*04:01
  Binder (t1/2 ≥ 0.5 h): half-life of peptide-SLA-2*04:01 complex: 216 min
SLA-3*04:01
  Binder (t1/2 ≥ 0.5 h): half-life of peptide-SLA-3*04:01 complex: 30 min

## FLVSLLVEI [IDO25, porcine IDO-derived 9-11mer peptide]
SLA-2*05:02
  Binder (t1/2 ≥ 0.5 h): half-life of peptide-SLA-2*05:02 complex: - (t1/2 (hours) is listed for each of the stably binding peptides (t1/2 ≥ 0.5 h))

## ENRGTGGTNVI [IDO19, porcine IDO-derived 9-11mer peptide]
SLA-2*05:02
  Binder (t1/2 ≥ 0.5 h): half-life of peptide-SLA-2*05:02 complex: - (t1/2 (hours) is listed for each of the stably binding peptides (t1/2 ≥ 0.5 h))

## KNMDILFSF [IDO58, porcine IDO-derived 9-11mer peptide]
PBMCs
  T cell response: x
SLA-2*04:01
  Binder (t1/2 ≥ 0.5 h): half-life of peptide-SLA-2*04:01 complex: 480 min
SLA-3*04:01
  Binder (t1/2 ≥ 0.5 h): half-life of peptide-SLA-3*04:01 complex: - (t1/2 (hours) is listed for each of the stably binding peptides (t1/2 ≥ 0.5 h))

## QRLAHLVLGY [IDO102, porcine IDO-derived 9-11mer peptide]
SLA-2*04:01
  Binder (t1/2 ≥ 0.5 h): half-life of peptide-SLA-2*04:01 complex: - (t1/2 (hours) is listed for each of the stably binding peptides (t1/2 ≥ 0.5 h))
SLA-3*04:01
  Binder (t1/2 ≥ 0.5 h): half-life of peptide-SLA-3*04:01 complex: - (t1/2 (hours) is listed for each of the stably binding peptides (t1/2 ≥ 0.5 h))

## KNKRRRGCPI [RhoC31, porcine RhoC-derived 9-11mer peptide]
PBMCs
  T cell response: x
SLA-3*04:01
  Binder (t1/2 ≥ 0.5 h): half-life of peptide-SLA-3*04:01 complex: 42 min

## VLSKGDALL [IDO127, porcine IDO-derived 9-11mer peptide]
SLA-2*05:02
  Binder (t1/2 ≥ 0.5 h): half-life of peptide-SLA-2*05:02 complex: - (t1/2 (hours) is listed for each of the stably binding peptides (t1/2 ≥ 0.5 h))

## KVIPTLFNAI [IDO61, porcine IDO-derived 9-11mer peptide]
SLA-2*05:02
  Binder (t1/2 ≥ 0.5 h): half-life of peptide-SLA-2*05:02 complex: - (t1/2 (hours) is listed for each of the stably binding peptides (t1/2 ≥ 0.5 h))

## MVSLRNYHLQI [IDO84, porcine IDO-derived 9-11mer peptide]
SLA-2*05:02
  Binder (t1/2 ≥ 0.5 h): half-life of peptide-SLA-2*05:02 complex: - (t1/2 (hours) is listed for each of the stably binding peptides (t1/2 ≥ 0.5 h))

## RNYHLQIVT [IDO110, porcine IDO-derived 9-11mer peptide]
SLA-2*04:01
  Binder (t1/2 ≥ 0.5 h): half-life of peptide-SLA-2*04:01 complex: - (t1/2 (hours) is listed for each of the stably binding peptides (t1/2 ≥ 0.5 h))
SLA-3*04:01
  Binder (t1/2 ≥ 0.5 h): half-life of peptide-SLA-3*04:01 complex: - (t1/2 (hours) is listed for each of the stably binding peptides (t1/2 ≥ 0.5 h))

## ENIPEKWTP [RhoC17, porcine RhoC-derived 9-11mer peptide]
SLA-2*05:02
  Binder (t1/2 ≥ 0.5 h): half-life of peptide-SLA-2*05:02 complex: 66 min

## IAIAKNLPELI [IDO44, porcine IDO-derived 9-11mer peptide]
SLA-2*05:02
  Binder (t1/2 ≥ 0.5 h): half-life of peptide-SLA-2*05:02 complex: - (t1/2 (hours) is listed for each of the stably binding peptides (t1/2 ≥ 0.5 h))

## EELPHPYDAWI [IDO14, porcine IDO-derived 9-11mer peptide]
SLA-2*05:02
  Binder (t1/2 ≥ 0.5 h): half-life of peptide-SLA-2*05:02 complex: - (t1/2 (hours) is listed for each of the stably binding peptides (t1/2 ≥ 0.5 h))

## ELAKMKQEP [RhoC15, porcine RhoC-derived 9-11mer peptide]
SLA-2*05:02
  Binder (t1/2 ≥ 0.5 h): half-life of peptide-SLA-2*05:02 complex: - (t1/2 (hours) is listed for each of the stably binding peptides (t1/2 ≥ 0.5 h))

## VPTVFENYI [RhoC54, porcine RhoC-derived 9-11mer peptide]
SLA-2*05:02
  Binder (t1/2 ≥ 0.5 h): half-life of peptide-SLA-2*05:02 complex: 108 min

## HLQIVTKYI [IDO38, porcine IDO-derived 9-11mer peptide]
SLA-2*05:02
  Binder (t1/2 ≥ 0.5 h): half-life of peptide-SLA-2*05:02 complex: 30 min

## ANRISAFGY [RhoC2, porcine RhoC-derived 9-11mer peptide]
PBMCs
  T cell response: x
SLA-2*04:01
  Binder (t1/2 ≥ 0.5 h): half-life of peptide-SLA-2*04:01 complex: 156 min
SLA-3*04:01
  Binder (t1/2 ≥ 0.5 h): half-life of peptide-SLA-3*04:01 complex: - (t1/2 (hours) is listed for each of the stably binding peptides (t1/2 ≥ 0.5 h))

## HKALEVFHQI [IDO36, porcine IDO-derived 9-11mer peptide]
SLA-2*05:02
  Binder (t1/2 ≥ 0.5 h): half-life of peptide-SLA-2*05:02 complex: - (t1/2 (hours) is listed for each of the stably binding peptides (t1/2 ≥ 0.5 h))

## MAAIRKKLVI [RhoC40, porcine RhoC-derived 9-11mer peptide]
SLA-2*05:02
  Binder (t1/2 ≥ 0.5 h): half-life of peptide-SLA-2*05:02 complex: 30 min

## DIRKVLPRNI [IDO10, porcine IDO-derived 9-11mer peptide]
SLA-2*05:02
  Binder (t1/2 ≥ 0.5 h): half-life of peptide-SLA-2*05:02 complex: - (t1/2 (hours) is listed for each of the stably binding peptides (t1/2 ≥ 0.5 h))

## MTYKNMDILFS [IDO82, porcine IDO-derived 9-11mer peptide]
SLA-3*04:01
  Binder (t1/2 ≥ 0.5 h): half-life of peptide-SLA-3*04:01 complex: - (t1/2 (hours) is listed for each of the stably binding peptides (t1/2 ≥ 0.5 h))

## AIAKNLPELI [IDO3, porcine IDO-derived 9-11mer peptide]
SLA-2*05:02
  Binder (t1/2 ≥ 0.5 h): half-life of peptide-SLA-2*05:02 complex: 54 min

## KHFCPNVPI [RhoC28, porcine RhoC-derived 9-11mer peptide]
SLA-3*04:01
  Binder (t1/2 ≥ 0.5 h): half-life of peptide-SLA-3*04:01 complex: - (t1/2 (hours) is listed for each of the stably binding peptides (t1/2 ≥ 0.5 h))

## LSEKLGLPPI [IDO72, porcine IDO-derived 9-11mer peptide]
SLA-2*05:02
  Binder (t1/2 ≥ 0.5 h): half-life of peptide-SLA-2*05:02 complex: - (t1/2 (hours) is listed for each of the stably binding peptides (t1/2 ≥ 0.5 h))

## KLFFNVLRI [IDO52, porcine IDO-derived 9-11mer peptide]
SLA-3*04:01
  Binder (t1/2 ≥ 0.5 h): half-life of peptide-SLA-3*04:01 complex: - (t1/2 (hours) is listed for each of the stably binding peptides (t1/2 ≥ 0.5 h))

## ANRISAFGYLE [RhoC4, porcine RhoC-derived 9-11mer peptide]
SLA-3*04:01
  Binder (t1/2 ≥ 0.5 h): half-life of peptide-SLA-3*04:01 complex: - (t1/2 (hours) is listed for each of the stably binding peptides (t1/2 ≥ 0.5 h))

## KLSEKLGLPPI [IDO56, porcine IDO-derived 9-11mer peptide]
SLA-2*05:02
  Binder (t1/2 ≥ 0.5 h): half-life of peptide-SLA-2*05:02 complex: - (t1/2 (hours) is listed for each of the stably binding peptides (t1/2 ≥ 0.5 h))

## KALEVFHQI [IDO45, porcine IDO-derived 9-11mer peptide]
SLA-2*05:02
  Binder (t1/2 ≥ 0.5 h): half-life of peptide-SLA-2*05:02 complex: - (t1/2 (hours) is listed for each of the stably binding peptides (t1/2 ≥ 0.5 h))

## KGFFLVSLLV [IDO50, porcine IDO-derived 9-11mer peptide]
SLA-3*04:01
  Binder (t1/2 ≥ 0.5 h): half-life of peptide-SLA-3*04:01 complex: - (t1/2 (hours) is listed for each of the stably binding peptides (t1/2 ≥ 0.5 h))

## ELPHPYDAWI [IDO18, porcine IDO-derived 9-11mer peptide]
SLA-2*05:02
  Binder (t1/2 ≥ 0.5 h): half-life of peptide-SLA-2*05:02 complex: 348 min

## KEGVREVFEM [RhoC27, porcine RhoC-derived 9-11mer peptide]
SLA-3*04:01
  Binder (t1/2 ≥ 0.5 h): half-life of peptide-SLA-3*04:01 complex: - (t1/2 (hours) is listed for each of the stably binding peptides (t1/2 ≥ 0.5 h))

## RNFLHSLESGP [IDO107, porcine IDO-derived 9-11mer peptide]
PBMCs
  T cell response: x
SLA-3*04:01
  Binder (t1/2 ≥ 0.5 h): half-life of peptide-SLA-3*04:01 complex: 42 min

## YVPTVFENYI [RhoC61, porcine RhoC-derived 9-11mer peptide]
SLA-2*05:02
  Binder (t1/2 ≥ 0.5 h): half-life of peptide-SLA-2*05:02 complex: 42 min

## HLQIVTKYIVI [IDO39, porcine IDO-derived 9-11mer peptide]
SLA-2*05:02
  Binder (t1/2 ≥ 0.5 h): half-life of peptide-SLA-2*05:02 complex: 36 min

## KDPSGPMTY [IDO47, porcine IDO-derived 9-11mer peptide]
SLA-3*04:01
  Binder (t1/2 ≥ 0.5 h): half-life of peptide-SLA-3*04:01 complex: - (t1/2 (hours) is listed for each of the stably binding peptides (t1/2 ≥ 0.5 h))

## RNFLHSLES [IDO105, porcine IDO-derived 9-11mer peptide]
PBMCs
  T cell response: x
SLA-3*04:01
  Binder (t1/2 ≥ 0.5 h): half-life of peptide-SLA-3*04:01 complex: 882 min

## RNYHLQIVTK [IDO111, porcine IDO-derived 9-11mer peptide]
SLA-2*04:01
  Binder (t1/2 ≥ 0.5 h): half-life of peptide-SLA-2*04:01 complex: - (t1/2 (hours) is listed for each of the stably binding peptides (t1/2 ≥ 0.5 h))
SLA-3*04:01
  Binder (t1/2 ≥ 0.5 h): half-life of peptide-SLA-3*04:01 complex: - (t1/2 (hours) is listed for each of the stably binding peptides (t1/2 ≥ 0.5 h))
